Laboratory results taken from the kinase profiling compilation of Christmann-Franck et al. (2016).

Tests used:
Assay in all cases: radiometric filter-binding kinase assay
EEF2K (human) = EEF2K (human) (UniProt O00418); details: compound 100.0 µM; ATP 5 µM
PAK4 (human) = PAK4 (human) (UniProt O96013); details: compound 100.0 µM; ATP 5 µM
MAPK3 (human) = MAPK3 (human) (UniProt P27361); details: compound 100.0 µM; ATP 5 µM
MAP2K1 (human) = MAP2K1 (human) (UniProt Q02750); details: compound 100.0 µM; ATP 5 µM
INSRR (human) = INSRR (human) (UniProt P14616); details: compound 100.0 µM; ATP 5 µM
LCK (mouse) = details: compound 100.0 µM; ATP 50 µM; accession and sequence are those of the human protein
MARK1 (human) = MARK1 (human) (UniProt Q9P0L2); details: compound 100.0 µM; ATP 20 µM
AURKB (human) = AURKB (human) (UniProt Q96GD4); details: compound 100.0 µM; ATP 20 µM
CSNK2A1 (human) = CSNK2A1 (human) (UniProt P68400); details: compound 100.0 µM; ATP 5 µM
PIM3 (human) = PIM3 (human) (UniProt Q86V86); details: compound 100.0 µM; ATP 20 µM
CLK2 (human) = CLK2 (human) (UniProt P49760); details: compound 100.0 µM; ATP 5 µM
ABL1 (human) = ABL1 (human) (UniProt P00519); details: compound 100.0 µM; ATP 5 µM
[1] = test system: RPS6KB1 (human), P23443 [T412E]; details: compound 100.0 µM; ATP 20 µM
MAPK1 (human) = MAPK1 (human) (UniProt P28482); details: compound 100.0 µM; ATP 20 µM
CaMK1 (human) = CaMK1 (human) (UniProt Q14012); details: compound 100.0 µM; ATP 50 µM
RIPK2 (human) = RIPK2 (human) (UniProt O43353); details: compound 100.0 µM; ATP 20 µM
TAOK1 (human) = TAOK1 (human) (UniProt Q7L7X3); details: compound 100.0 µM; ATP 20 µM
MARK2 (human) = MARK2 (human) (UniProt Q7KZI7); details: compound 100.0 µM; ATP 20 µM
PDPK1 (human) = PDPK1 (human) (UniProt O15530); details: compound 100.0 µM
HIPK2 (human) = HIPK2 (human) (UniProt Q9H2X6); details: compound 100.0 µM; ATP 5 µM
TTK (human) = TTK (human) (UniProt P33981); details: compound 100.0 µM; ATP 20 µM
MAP3K5 (human) = MAP3K5 (human) (UniProt Q99683); details: compound 100.0 µM; ATP 50 µM
MAPK10 (human) = MAPK10 (human) (UniProt P53779); details: compound 100.0 µM; ATP 20 µM
MKNK2 (human) = MKNK2 (human) (UniProt Q9HBH9); details: compound 100.0 µM; ATP 50 µM
[2] = test system: PAK2 (human), Q13177 [T402E]; details: compound 100.0 µM; ATP 20 µM
AURKA (human) = AURKA (human) (UniProt O14965); details: compound 100.0 µM; ATP 5 µM
CSK (human) = CSK (human) (UniProt P41240); details: compound 100.0 µM; ATP 20 µM
MAPKAPK5 (human) = MAPKAPK5 (human) (UniProt Q8IW41); details: compound 100.0 µM; ATP 20 µM
IRAK4 (human) = IRAK4 (human) (UniProt Q9NWZ3); details: compound 100.0 µM; ATP 20 µM
RPS6KA1 KD1 KD2 (human) = RPS6KA1 KD1 KD2 (human) (UniProt Q15418); details: compound 100.0 µM; ATP 50 µM
BRSK1 (human) = BRSK1 (human) (UniProt Q8TDC3); details: compound 100.0 µM; ATP 20 µM
MAP3K11 (human) = MAP3K11 (human) (UniProt Q16584); details: compound 100.0 µM; ATP 20 µM
DAPK1 (human) = DAPK1 (human) (UniProt P53355); details: compound 100.0 µM; ATP 5 µM
EPHA4 (human) = EPHA4 (human) (UniProt P54764); details: compound 100.0 µM; ATP 50 µM
MAPK8 (human) = MAPK8 (human) (UniProt P45983); details: compound 100.0 µM; ATP 20 µM
ERBB4 (human) = ERBB4 (human) (UniProt Q15303); details: compound 100.0 µM; ATP 5 µM
MAP3K7 TAB1 (human) = MAP3K7 TAB1 (human) (UniProt Q15750+O43318); details: compound 100.0 µM; ATP 5 µM
ZAP70 (human) = ZAP70 (human) (UniProt P43403); details: compound 100.0 µM; ATP 5 µM
HIPK3 (human) = HIPK3 (human) (UniProt Q9H422); details: compound 100.0 µM; ATP 20 µM

Sequence of ERBB4 (human) (Q15303 whole entry, looked up): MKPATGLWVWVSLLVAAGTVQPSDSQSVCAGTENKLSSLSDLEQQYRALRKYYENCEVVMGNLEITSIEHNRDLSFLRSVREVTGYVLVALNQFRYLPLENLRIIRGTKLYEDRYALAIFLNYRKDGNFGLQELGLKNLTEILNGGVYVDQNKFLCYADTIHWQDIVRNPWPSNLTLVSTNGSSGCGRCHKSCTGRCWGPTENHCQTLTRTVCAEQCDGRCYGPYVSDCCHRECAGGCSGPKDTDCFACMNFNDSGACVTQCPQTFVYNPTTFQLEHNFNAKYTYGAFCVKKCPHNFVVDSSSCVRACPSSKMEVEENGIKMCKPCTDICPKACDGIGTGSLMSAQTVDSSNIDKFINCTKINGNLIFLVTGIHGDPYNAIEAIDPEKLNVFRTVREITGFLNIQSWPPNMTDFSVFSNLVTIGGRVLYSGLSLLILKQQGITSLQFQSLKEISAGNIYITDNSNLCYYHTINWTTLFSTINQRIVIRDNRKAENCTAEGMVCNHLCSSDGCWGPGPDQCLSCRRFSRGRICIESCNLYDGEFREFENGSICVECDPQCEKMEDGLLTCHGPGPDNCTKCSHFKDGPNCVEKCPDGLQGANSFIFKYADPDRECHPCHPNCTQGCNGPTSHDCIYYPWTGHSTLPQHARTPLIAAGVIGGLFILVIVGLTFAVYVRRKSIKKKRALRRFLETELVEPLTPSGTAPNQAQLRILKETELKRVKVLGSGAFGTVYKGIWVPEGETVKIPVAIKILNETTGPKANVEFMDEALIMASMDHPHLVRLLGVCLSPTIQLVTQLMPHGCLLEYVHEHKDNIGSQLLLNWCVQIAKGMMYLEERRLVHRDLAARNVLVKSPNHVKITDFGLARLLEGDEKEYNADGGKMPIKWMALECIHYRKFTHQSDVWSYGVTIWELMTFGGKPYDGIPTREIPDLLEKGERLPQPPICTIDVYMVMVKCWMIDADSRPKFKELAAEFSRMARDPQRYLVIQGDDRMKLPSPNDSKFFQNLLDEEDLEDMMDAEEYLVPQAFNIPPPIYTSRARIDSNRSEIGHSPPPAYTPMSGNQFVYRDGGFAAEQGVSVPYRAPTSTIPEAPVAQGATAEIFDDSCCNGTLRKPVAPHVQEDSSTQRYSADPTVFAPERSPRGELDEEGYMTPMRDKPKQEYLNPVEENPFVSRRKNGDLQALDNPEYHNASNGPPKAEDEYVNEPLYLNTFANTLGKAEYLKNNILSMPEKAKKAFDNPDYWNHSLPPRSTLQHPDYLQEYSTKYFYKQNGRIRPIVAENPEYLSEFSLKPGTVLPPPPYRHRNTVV
Sequence of IRAK4 (human) (Q9NWZ3 whole entry, looked up): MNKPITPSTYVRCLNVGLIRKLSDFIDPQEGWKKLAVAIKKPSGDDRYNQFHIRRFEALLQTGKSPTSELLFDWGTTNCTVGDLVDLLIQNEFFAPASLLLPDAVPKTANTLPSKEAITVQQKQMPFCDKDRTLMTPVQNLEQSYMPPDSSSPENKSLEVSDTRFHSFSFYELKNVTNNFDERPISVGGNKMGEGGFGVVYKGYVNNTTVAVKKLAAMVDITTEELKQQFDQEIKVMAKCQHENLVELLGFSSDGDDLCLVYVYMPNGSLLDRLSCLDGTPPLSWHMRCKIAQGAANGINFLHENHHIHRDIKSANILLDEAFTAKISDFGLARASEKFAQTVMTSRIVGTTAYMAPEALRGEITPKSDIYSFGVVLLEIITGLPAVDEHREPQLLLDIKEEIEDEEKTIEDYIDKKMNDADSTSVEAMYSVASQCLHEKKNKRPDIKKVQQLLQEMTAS
Sequence of EPHA4 (human) (P54764 whole entry, looked up): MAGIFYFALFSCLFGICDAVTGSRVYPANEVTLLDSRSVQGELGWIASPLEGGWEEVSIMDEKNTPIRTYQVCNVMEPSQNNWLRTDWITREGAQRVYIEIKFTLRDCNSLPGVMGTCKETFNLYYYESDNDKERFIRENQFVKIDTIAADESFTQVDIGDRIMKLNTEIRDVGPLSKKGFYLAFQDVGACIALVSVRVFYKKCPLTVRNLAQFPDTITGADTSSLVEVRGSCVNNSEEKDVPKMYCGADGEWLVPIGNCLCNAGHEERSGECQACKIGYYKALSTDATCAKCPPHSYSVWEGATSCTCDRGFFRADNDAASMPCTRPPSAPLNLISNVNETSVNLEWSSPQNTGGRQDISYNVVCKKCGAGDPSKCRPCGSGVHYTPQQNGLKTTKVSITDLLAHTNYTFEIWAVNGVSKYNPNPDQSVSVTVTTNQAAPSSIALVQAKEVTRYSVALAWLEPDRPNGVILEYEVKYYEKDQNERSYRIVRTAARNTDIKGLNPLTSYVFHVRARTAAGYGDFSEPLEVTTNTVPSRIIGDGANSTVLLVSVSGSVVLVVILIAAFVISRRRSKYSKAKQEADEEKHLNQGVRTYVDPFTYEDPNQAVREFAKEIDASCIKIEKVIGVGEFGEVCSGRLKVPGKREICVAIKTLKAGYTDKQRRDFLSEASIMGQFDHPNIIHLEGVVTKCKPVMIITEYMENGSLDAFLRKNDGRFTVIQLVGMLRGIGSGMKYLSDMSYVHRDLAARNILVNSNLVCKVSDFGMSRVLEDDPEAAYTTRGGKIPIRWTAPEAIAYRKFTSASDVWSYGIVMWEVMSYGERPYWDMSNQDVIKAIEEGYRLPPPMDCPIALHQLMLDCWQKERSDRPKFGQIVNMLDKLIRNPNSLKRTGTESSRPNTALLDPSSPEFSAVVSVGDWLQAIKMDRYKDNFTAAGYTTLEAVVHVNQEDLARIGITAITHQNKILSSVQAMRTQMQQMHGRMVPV
Sequence of INSRR (human) (P14616 whole entry, looked up): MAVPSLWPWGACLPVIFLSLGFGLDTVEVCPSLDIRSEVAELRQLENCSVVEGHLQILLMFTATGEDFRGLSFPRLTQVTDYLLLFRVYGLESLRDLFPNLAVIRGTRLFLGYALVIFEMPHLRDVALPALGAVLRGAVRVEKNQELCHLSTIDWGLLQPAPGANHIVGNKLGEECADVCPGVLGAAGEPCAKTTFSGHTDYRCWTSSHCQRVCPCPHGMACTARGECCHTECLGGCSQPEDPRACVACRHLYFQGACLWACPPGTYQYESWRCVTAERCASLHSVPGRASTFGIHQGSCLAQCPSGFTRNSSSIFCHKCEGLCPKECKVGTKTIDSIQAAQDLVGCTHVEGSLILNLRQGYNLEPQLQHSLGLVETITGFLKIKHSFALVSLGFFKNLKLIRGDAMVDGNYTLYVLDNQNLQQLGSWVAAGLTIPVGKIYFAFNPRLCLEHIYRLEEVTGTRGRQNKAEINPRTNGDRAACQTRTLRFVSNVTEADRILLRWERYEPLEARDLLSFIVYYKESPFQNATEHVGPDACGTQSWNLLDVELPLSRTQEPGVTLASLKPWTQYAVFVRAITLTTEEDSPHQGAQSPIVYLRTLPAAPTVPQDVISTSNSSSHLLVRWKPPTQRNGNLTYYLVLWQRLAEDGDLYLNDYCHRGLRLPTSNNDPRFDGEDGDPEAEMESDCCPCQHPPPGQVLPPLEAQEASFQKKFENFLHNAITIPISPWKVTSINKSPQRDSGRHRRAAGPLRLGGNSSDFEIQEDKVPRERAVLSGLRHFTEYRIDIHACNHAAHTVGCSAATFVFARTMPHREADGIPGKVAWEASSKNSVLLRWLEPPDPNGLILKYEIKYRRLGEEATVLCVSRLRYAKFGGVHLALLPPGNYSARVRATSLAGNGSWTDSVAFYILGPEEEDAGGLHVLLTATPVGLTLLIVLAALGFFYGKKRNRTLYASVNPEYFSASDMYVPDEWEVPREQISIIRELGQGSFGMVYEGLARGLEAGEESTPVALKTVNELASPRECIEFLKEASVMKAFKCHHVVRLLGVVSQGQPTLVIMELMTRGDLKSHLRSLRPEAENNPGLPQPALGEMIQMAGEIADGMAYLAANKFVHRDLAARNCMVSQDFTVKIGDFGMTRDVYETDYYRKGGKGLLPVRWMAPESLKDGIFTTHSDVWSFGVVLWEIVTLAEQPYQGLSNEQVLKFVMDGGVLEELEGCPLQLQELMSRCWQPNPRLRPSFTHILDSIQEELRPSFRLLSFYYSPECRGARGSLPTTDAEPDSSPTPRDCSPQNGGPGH
Sequence of CSNK2A1 (human) (P68400 whole entry, looked up): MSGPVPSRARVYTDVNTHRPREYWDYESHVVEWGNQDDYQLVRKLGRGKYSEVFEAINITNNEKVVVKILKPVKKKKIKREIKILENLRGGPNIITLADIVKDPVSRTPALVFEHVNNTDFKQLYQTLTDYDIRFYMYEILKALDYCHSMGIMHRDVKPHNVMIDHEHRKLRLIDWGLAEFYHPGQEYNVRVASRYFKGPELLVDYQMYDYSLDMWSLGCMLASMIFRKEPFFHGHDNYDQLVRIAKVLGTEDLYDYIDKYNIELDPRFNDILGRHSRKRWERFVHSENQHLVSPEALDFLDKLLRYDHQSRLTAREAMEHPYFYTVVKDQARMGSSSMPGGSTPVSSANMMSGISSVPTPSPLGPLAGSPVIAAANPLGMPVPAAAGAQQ
Sequence of RIPK2 (human) (O43353 whole entry, looked up): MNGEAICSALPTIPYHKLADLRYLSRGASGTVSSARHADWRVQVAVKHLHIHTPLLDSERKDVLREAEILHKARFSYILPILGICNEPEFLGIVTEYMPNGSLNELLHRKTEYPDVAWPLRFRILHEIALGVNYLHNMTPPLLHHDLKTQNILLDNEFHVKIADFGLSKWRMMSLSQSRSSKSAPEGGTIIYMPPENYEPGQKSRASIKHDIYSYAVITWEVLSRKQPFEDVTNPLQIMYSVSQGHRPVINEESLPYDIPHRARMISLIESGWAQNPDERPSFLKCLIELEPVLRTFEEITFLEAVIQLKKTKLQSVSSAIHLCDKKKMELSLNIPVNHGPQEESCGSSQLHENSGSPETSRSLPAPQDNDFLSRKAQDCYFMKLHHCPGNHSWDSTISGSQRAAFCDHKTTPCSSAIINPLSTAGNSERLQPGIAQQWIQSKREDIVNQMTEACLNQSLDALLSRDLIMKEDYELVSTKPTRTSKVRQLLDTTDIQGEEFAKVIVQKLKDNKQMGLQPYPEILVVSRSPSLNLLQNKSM

Row | Structure (SMILES) | inhibition (EEF2K (human)) | inhibition (PAK4 (human)) | inhibition (MAPK3 (human)) | inhibition (MAP2K1 (human)) | inhibition (INSRR (human)) | inhibition (LCK (mouse)) | inhibition (MARK1 (human)) | inhibition (AURKB (human)) | inhibition (CSNK2A1 (human)) | inhibition (PIM3 (human)) | inhibition (CLK2 (human)) | inhibition (ABL1 (human)) | inhibition [1] | inhibition (MAPK1 (human)) | inhibition (CaMK1 (human)) | inhibition (RIPK2 (human)) | inhibition (TAOK1 (human)) | inhibition (MARK2 (human)) | inhibition (PDPK1 (human); ATP 20 µM) | inhibition (PDPK1 (human); ATP 50 µM) | further results
1 | COc1ccc(-c2cc3c(=O)[nH]cnc3s2)cc1OC | 2% | 30% | 26% | 23% | 0% | 29% | 27% | 19% | 31% | 61% | 50% | 34% | 30% | 0% | 66% | 65% | 28% | 0% | 41% | 25% | inhibition (HIPK2 (human)): 58%; inhibition (TTK (human)): 25%; inhibition (MAP3K5 (human)): 19%; inhibition (MAPK10 (human)): 3%; inhibition (MKNK2 (human)): 21%; inhibition [2]: 0%; inhibition (AURKA (human)): 1%; inhibition (CSK (human)): 14%; inhibition (MAPKAPK5 (human)): 5%; inhibition (IRAK4 (human)): 9%; inhibition (RPS6KA1 KD1 KD2 (human)): 59%; inhibition (BRSK1 (human)): 45%; inhibition (MAP3K11 (human)): 8%; inhibition (DAPK1 (human)): 0%; inhibition (EPHA4 (human)): 12%; inhibition (MAPK8 (human)): 8%; inhibition (ERBB4 (human)): 17%; inhibition (MAP3K7 TAB1 (human)): 45%; inhibition (ZAP70 (human)): 0%; inhibition (HIPK3 (human)): 0%
2 | O=C(c1cccc(-c2cc3c(=O)[nH]cnc3s2)c1)N1CCOCC1 | 39% | 34% | 19% | 31% | 0% | 40% | 31% | 6% | 41% | 51% | 46% | 15% | 34% | 1% | 75% | 12% | 3% | 0% | 16% | 53% | inhibition (HIPK2 (human)): 38%; inhibition (TTK (human)): 0%; inhibition (MAP3K5 (human)): 54%; inhibition (MAPK10 (human)): 7%; inhibition (MKNK2 (human)): 30%; inhibition [2]: 0%; inhibition (AURKA (human)): 21%; inhibition (CSK (human)): 10%; inhibition (MAPKAPK5 (human)): 0%; inhibition (IRAK4 (human)): 28%; inhibition (RPS6KA1 KD1 KD2 (human)): 47%; inhibition (BRSK1 (human)): 38%; inhibition (MAP3K11 (human)): 23%; inhibition (DAPK1 (human)): 0%; inhibition (EPHA4 (human)): 0%; inhibition (MAPK8 (human)): 8%; inhibition (ERBB4 (human)): 33%; inhibition (MAP3K7 TAB1 (human)): 78%; inhibition (ZAP70 (human)): 0%; inhibition (HIPK3 (human)): 0%
3 | CC(=O)Nc1nc2cnc(-c3c(C)cccc3C)cn2n1 | 7% | 0% | 10% | 0% | 0% | 0% | 0% | 0% | 0% | 1% | 28% | 18% | 0% | 0% | 35% | 5% | 1% | 0% | 0% | 0% | inhibition (HIPK2 (human)): 18%; inhibition (TTK (human)): 0%; inhibition (MAP3K5 (human)): 0%; inhibition (MAPK10 (human)): 0%; inhibition (MKNK2 (human)): 0%; inhibition [2]: 0%; inhibition (AURKA (human)): 10%; inhibition (CSK (human)): 0%; inhibition (MAPKAPK5 (human)): 17%; inhibition (IRAK4 (human)): 0%; inhibition (RPS6KA1 KD1 KD2 (human)): 0%; inhibition (BRSK1 (human)): 0%; inhibition (MAP3K11 (human)): 0%; inhibition (DAPK1 (human)): 0%; inhibition (EPHA4 (human)): 10%; inhibition (MAPK8 (human)): 0%; inhibition (ERBB4 (human)): 9%; inhibition (MAP3K7 TAB1 (human)): 0%; inhibition (ZAP70 (human)): 9%; inhibition (HIPK3 (human)): 0%

The next lines start with results.

Row | inhibition (EEF2K (human)) | inhibition (PAK4 (human)) | inhibition (MAPK3 (human)) | inhibition (MAP2K1 (human)) | inhibition (INSRR (human)) | inhibition (LCK (mouse)) | inhibition (MARK1 (human)) | inhibition (AURKB (human)) | inhibition (CSNK2A1 (human)) | inhibition (PIM3 (human)) | inhibition (CLK2 (human)) | inhibition (ABL1 (human)) | inhibition [1] | inhibition (MAPK1 (human)) | inhibition (CaMK1 (human)) | inhibition (RIPK2 (human)) | inhibition (TAOK1 (human)) | inhibition (MARK2 (human)) | inhibition (PDPK1 (human); ATP 20 µM) | inhibition (PDPK1 (human); ATP 50 µM) | Structure (SMILES) | further results
4 | 6% | 18% | 7% | 57% | 0% | 0% | 13% | 0% | 3% | 0% | 3% | 0% | 9% | 0% | 6% | 0% | 0% | 0% | 0% | 0% | O=c1c(NC(=S)NCc2ccccc2)cnc2[nH]ccn12 | inhibition (HIPK2 (human)): 0%; inhibition (TTK (human)): 0%; inhibition (MAP3K5 (human)): 0%; inhibition (MAPK10 (human)): 0%; inhibition (MKNK2 (human)): 13%; inhibition [2]: 5%; inhibition (AURKA (human)): 8%; inhibition (CSK (human)): 26%; inhibition (MAPKAPK5 (human)): 0%; inhibition (IRAK4 (human)): 6%; inhibition (RPS6KA1 KD1 KD2 (human)): 17%; inhibition (BRSK1 (human)): 2%; inhibition (MAP3K11 (human)): 11%; inhibition (DAPK1 (human)): 0%; inhibition (EPHA4 (human)): 15%; inhibition (MAPK8 (human)): 0%; inhibition (ERBB4 (human)): 34%; inhibition (MAP3K7 TAB1 (human)): 20%; inhibition (ZAP70 (human)): 0%; inhibition (HIPK3 (human)): 0%
5 | 13% | 47% | 13% | 34% | 60% | 29% | 6% | 61% | 11% | 30% | 79% | 48% | 5% | 7% | 17% | 29% | 0% | 18% | 15% | 13% | CC(=O)Nc1nc2cnc(-c3ccccc3)cn2n1 | inhibition (HIPK2 (human)): 49%; inhibition (TTK (human)): 4%; inhibition (MAP3K5 (human)): 25%; inhibition (MAPK10 (human)): 11%; inhibition (MKNK2 (human)): 35%; inhibition [2]: 0%; inhibition (AURKA (human)): 13%; inhibition (CSK (human)): 29%; inhibition (MAPKAPK5 (human)): 6%; inhibition (IRAK4 (human)): 39%; inhibition (RPS6KA1 KD1 KD2 (human)): 24%; inhibition (BRSK1 (human)): 23%; inhibition (MAP3K11 (human)): 17%; inhibition (DAPK1 (human)): 12%; inhibition (EPHA4 (human)): 19%; inhibition (MAPK8 (human)): 2%; inhibition (ERBB4 (human)): 19%; inhibition (MAP3K7 TAB1 (human)): 30%; inhibition (ZAP70 (human)): 16%; inhibition (HIPK3 (human)): 0%
